# Source: publication PMC12682859, “Interconnected roles of mitochondrial carrier proteins ANT, PiT, and UCPs in proton transport” (Frontiers in Molecular Biosciences, 2025)
# T1: UCP2 (Homo sapiens, UniProt P55851)
# T1 construct: full length, N-terminal His6 tag kept, pelB leader removed; E. coli membranes; homotetramer in liposomes
# T1 sequence (P55851 1-309): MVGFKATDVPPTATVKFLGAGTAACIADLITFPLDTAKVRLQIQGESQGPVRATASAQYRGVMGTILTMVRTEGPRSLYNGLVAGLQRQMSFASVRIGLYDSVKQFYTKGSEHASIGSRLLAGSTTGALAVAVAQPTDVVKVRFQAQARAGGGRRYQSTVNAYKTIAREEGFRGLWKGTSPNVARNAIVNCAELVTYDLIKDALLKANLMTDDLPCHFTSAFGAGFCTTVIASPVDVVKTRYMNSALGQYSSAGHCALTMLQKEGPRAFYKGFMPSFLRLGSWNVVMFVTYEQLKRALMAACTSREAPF
# T2: UCP4 (Homo sapiens, UniProt O95847)
# T2 construct: gene SLC25A27; full length, N-terminal His6 tag kept, pelB leader removed; E. coli membranes; homotetramer in liposomes
# T2 sequence (O95847 1-323): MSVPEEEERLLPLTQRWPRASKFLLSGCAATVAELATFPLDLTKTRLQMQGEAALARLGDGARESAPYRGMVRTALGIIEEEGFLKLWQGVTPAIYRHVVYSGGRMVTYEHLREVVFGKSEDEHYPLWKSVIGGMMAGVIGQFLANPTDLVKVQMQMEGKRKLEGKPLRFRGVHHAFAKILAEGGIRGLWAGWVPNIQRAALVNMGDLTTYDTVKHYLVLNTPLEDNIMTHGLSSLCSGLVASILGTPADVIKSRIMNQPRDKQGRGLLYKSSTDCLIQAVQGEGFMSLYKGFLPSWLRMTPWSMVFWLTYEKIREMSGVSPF
# T3: PiT (PiT-B) (Homo sapiens, UniProt Q00325)
# T3 construct: gene SLC25A3; isoform B, N-terminal His6 tag kept, pelB leader removed; E. coli membranes; mainly monomer in liposomes
# T3 sequence (Q00325 50-361 isoform Q00325-2): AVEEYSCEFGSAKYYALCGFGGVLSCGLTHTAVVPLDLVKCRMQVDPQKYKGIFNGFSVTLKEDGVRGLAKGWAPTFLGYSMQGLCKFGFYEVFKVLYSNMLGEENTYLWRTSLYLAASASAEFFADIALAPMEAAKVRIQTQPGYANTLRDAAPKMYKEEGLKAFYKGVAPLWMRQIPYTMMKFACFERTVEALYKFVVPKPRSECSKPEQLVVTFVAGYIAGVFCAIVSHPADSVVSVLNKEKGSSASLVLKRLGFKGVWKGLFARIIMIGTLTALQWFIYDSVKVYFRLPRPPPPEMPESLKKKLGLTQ
# T4: ANT1 (Bos taurus, UniProt P02722)
# T4 sequence (P02722 2-298): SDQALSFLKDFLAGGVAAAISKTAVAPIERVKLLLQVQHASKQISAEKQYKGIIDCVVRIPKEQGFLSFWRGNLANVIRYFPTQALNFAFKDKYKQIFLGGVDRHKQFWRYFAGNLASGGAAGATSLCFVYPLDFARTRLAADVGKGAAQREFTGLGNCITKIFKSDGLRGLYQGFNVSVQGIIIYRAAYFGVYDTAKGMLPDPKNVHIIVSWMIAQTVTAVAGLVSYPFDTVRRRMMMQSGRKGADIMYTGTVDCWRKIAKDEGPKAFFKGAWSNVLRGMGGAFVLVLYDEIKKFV
# T5: UCP4:ANT1 heterotetramer (1:1) (Homo sapiens; Bos taurus, UniProt O95847+P02722)
# T5 construct: gene SLC25A27; co-reconstituted 1:1 in liposomes from purified N-terminally His6-tagged monomers (bovine ANT1, human UCP4); heterotetramer
# T5 sequence (O95847 1-323): T2 sequence (O95847 1-323)
# T5 sequence (P02722 2-298): T4 sequence (P02722 2-298)
# T6: UCP2:ANT1 heterotetramer (1:1) (Homo sapiens; Bos taurus, UniProt P02722+P55851)
# T6 construct: co-reconstituted 1:1 in liposomes from purified N-terminally His6-tagged monomers (bovine ANT1, human UCP2); heterotetramer
# T6 sequence (P55851 1-309): T1 sequence (P55851 1-309)
# T6 sequence (P02722 2-298): T4 sequence (P02722 2-298)
# B1: adenine nucleotide translocase 1 (ANT1), recombinant His6-tagged (natural protein, bovine)
# chain: T4 sequence (P02722 2-298)
# notes: bovine ANT1, UniProt P02722; Cloned in pET26b(+); also called ADP/ATP carrier; AAC; source: E. coli BL21 (DE3) or BL21 CodonPlus (DE3)-RIPL, extracted from bacterial membranes, purified (Ni-NTA IMAC, 1% OG); not shown: pelB leader, N-terminal, cleaved; His6, N-terminal, kept
# B2: uncoupling protein 4 (UCP4), recombinant His6-tagged (natural protein, human, UniProt O95847 1-323, looked up)
# chain: T2 sequence (O95847 1-323)
# notes: human UCP4, UniProt O95847; Cloned in pET26b(+); purified as a monomer in OG, tetramer after reconstitution in liposomes; source: E. coli BL21 (DE3) or BL21 CodonPlus (DE3)-RIPL, extracted from bacterial membranes, purified (Ni-NTA IMAC, 1% OG); not shown: pelB leader, N-terminal, cleaved; His6, N-terminal, kept
# B3: uncoupling protein 2 (UCP2), recombinant His6-tagged (natural protein, human, UniProt P55851 1-309, looked up)
# chain: T1 sequence (P55851 1-309)
# notes: human UCP2, UniProt P55851; Cloned in pET26b(+); purified as a monomer in OG, tetramer after reconstitution in liposomes; source: E. coli BL21 (DE3) or BL21 CodonPlus (DE3)-RIPL, extracted from bacterial membranes, purified (Ni-NTA IMAC, 1% OG); not shown: pelB leader, N-terminal, cleaved; His6, N-terminal, kept
# What was measured:
# UCP2 [1] = molecular target: T1, UCP2; experiment: SPQ fluorescence proton efflux in proteoliposomes; type: biochemical; conditions: EYPC liposomes, valinomycin, pH 7.2, 25 C
# UCP4 [2] = molecular target: T2, UCP4; experiment: SPQ fluorescence proton efflux in proteoliposomes; type: biochemical; conditions: EYPC liposomes, valinomycin, pH 7.2, 25 C
# PiT (PiT-B) = molecular target: T3, PiT (PiT-B); experiment: SPQ fluorescence proton efflux in proteoliposomes; type: biochemical; conditions: EYPC liposomes, valinomycin, pH 7.2, 25 C
# ANT1 [3] = molecular target: T4, ANT1; experiment: SPQ fluorescence proton efflux in proteoliposomes; type: biochemical; parameters: gene SLC25A4; full length, N-terminal His6 tag kept, pelB leader removed; E. coli membranes; mainly monomer in liposomes; conditions: EYPC liposomes, valinomycin, pH 7.2, 25 C
# [4] = molecular target: T5, UCP4:ANT1 heterotetramer (1:1); type: biochemical; conditions: 500 uM ATP; EYPC without added cardiolipin, 100 uM palmitic acid, valinomycin, pH 7.2, 25 C
# ANT1 [5] = molecular target: T4, ANT1; parameters: gene SLC25A4; conditions: 500 uM ATP; EYPC without added cardiolipin, 100 uM palmitic acid, valinomycin, pH 7.2, 25 C
# [6] = molecular target: T6, UCP2:ANT1 heterotetramer (1:1); type: biochemical; conditions: 500 uM ATP; EYPC without added cardiolipin, 100 uM palmitic acid, valinomycin, pH 7.2, 25 C
# UCP2 [7] = molecular target: T1, UCP2; experiment: SPQ fluorescence proton efflux in proteoliposomes; type: biochemical; conditions: 500 uM GTP; EYPC with or without 2.5% cardiolipin, 100 uM palmitic or oleic acid, valinomycin, pH 7.2, 25 C
# UCP4 [8] = molecular target: T2, UCP4; experiment: SPQ fluorescence proton efflux in proteoliposomes; type: biochemical; conditions: 500 uM GTP; EYPC with or without 2.5% cardiolipin, 100 uM palmitic or oleic acid, valinomycin, pH 7.2, 25 C
# [9] = molecular target: B2; experiment: semi-native SDS-PAGE; two purified monomeric proteins co-reconstituted 1:1 in liposomes (UCP4:ANT1 also 3:1 and 1:3), regardless of lipid composition (EYPC with or without 2.5% CL); Coomassie staining; conditions: both partners purified
# [10] = molecular target: B3; experiment: as above; conditions: both partners purified
# [11] = molecular target: the molecule itself; experiment: semi-native SDS-PAGE; single purified protein reconstituted in liposomes of egg yolk extract (EYPC, ~60% PC) without added cardiolipin; 0.1% SDS in gel and running buffer, samples not heated; Coomassie staining
# [12] = 100 uM palmitic acid as activator
molecule,measurement,setting,value
"CCCCCCCC/C=C\CCCCCCCC(=O)O [OA, oleic acid]",fatty acid-activated proton efflux (qualitative),UCP2 [1]; 100 uM oleic acid as activator,"For each individual protein, OA was a significantly more potent activator than PA"
same,SPQ fluorescence proton efflux in proteoliposomes,UCP4 [2]; 100 uM oleic acid as activator,"For each individual protein, OA was a significantly more potent activator than PA"
same,SPQ fluorescence proton efflux in proteoliposomes,PiT (PiT-B); 100 uM oleic acid as activator,"For each individual protein, OA was a significantly more potent activator than PA"
same,fatty-acid-activated proton transport (qualitative finding),ANT1 [3]; 100 uM oleic acid as activator,"For each individual protein, OA was a significantly more potent activator than PA"
"CCCCCCCCCCCCCCCC(=O)O [PA, palmitic acid]",fatty acid-activated proton efflux (qualitative),UCP2 [1]; [12],both OA and PA interacted with all proteins and their combinations
same,SPQ fluorescence proton efflux in proteoliposomes,UCP4 [2]; [12],both OA and PA interacted with all proteins and their combinations
same,SPQ fluorescence proton efflux in proteoliposomes,PiT (PiT-B); [12],both OA and PA interacted with all proteins and their combinations
same,fatty-acid-activated proton transport (qualitative finding),ANT1 [3]; [12],both OA and PA interacted with all proteins and their combinations
Nc1ncnc2c1ncn2[C@@H]1O[C@H](COP(=O)(O)OP(=O)(O)OP(=O)(O)O)[C@@H](O)[C@H]1O [ATP],% inhibition at 500 uM,[4],ATP significantly inhibited combinations of UCP2 or UCP4 with ANT1
same,% inhibition at 500 uM,ANT1 [5],proton transport was inhibited by ATP more effectively than by GTP
same,% inhibition at 500 uM,[6],ATP significantly inhibited combinations of UCP2 or UCP4 with ANT1
Nc1nc2c(ncn2[C@@H]2O[C@H](COP(=O)(O)OP(=O)(O)OP(=O)(O)O)[C@@H](O)[C@H]2O)c(=O)[nH]1 [GTP],% inhibition at 500 uM,UCP2 [7],GTP is overall a more effective inhibitor than ATP of UCP2 and UCP4
same,% inhibition at 500 uM,UCP4 [8],GTP is overall a more effective inhibitor than ATP of UCP2 and UCP4
B1,binding result,[9],binds
same,binding result,[10],binds
same,stoichiometry N,[11],2
B2,stoichiometry N,[11],4
B3,binding result,[9],binds
same,stoichiometry N,[11],4
